Columns and labels:
HepG2 = experiment: Antiproliferative activity against human HepG2 cells assessed as inhibition of cell growth incubated for 48 hrs by MTT assay; type: functional, cell-based; conditions: HepG2, 48 h
HeLa = experiment: Antiproliferative activity against human HeLa cells assessed as inhibition of cell growth incubated for 48 hrs by MTT assay; type: functional, cell-based
HGC-27 [1] = experiment: Antiproliferative activity against human HGC-27 cells assessed as inhibition of cell growth incubated for 48 hrs by MTT assay; type: functional, cell-based; conditions: HGC-27, 48 h
[2] = Acute toxicity in BALB/c mouse xenografted with human HGC-27 cells assessed as venous congestion in spleen at 40 mg/kg,ip administrated every other day for 17 days by hematoxylin and eosin staining method; type: organism-based; conditions: in vivo, 408 h, time 17 day
[3] = Acute toxicity in BALB/c mouse xenografted with human HGC-27 cells assessed as change in body weight at 40 mg/kg,ip administrated every other day for 17 days; type: organism-based; conditions: in vivo, 408 h, time 17 day
A549 = experiment: Antiproliferative activity against human A549 cells assessed as inhibition of cell growth incubated for 48 hrs by MTT assay; type: functional, cell-based; conditions: A549, 48 h
[4] = Acute toxicity in BALB/c mouse xenografted with human HGC-27 cells assessed as increase in mucin secretion of lung at 40 mg/kg,ip administrated every other day for 17 days by hematoxylin and eosin staining method; type: organism-based; conditions: in vivo, 408 h, time 17 day
HGC-27 [5] = experiment: Antitumor activity against human HGC-27 cells xenografted in BALB/c mouse assessed as tumor growth inhibition at 40 mg/kg,ip administrated every other day for 17 days relative to control; type: functional; conditions: HGC-27, 408 h, time 17 day, read-out: TGI
[6] = Acute toxicity in BALB/c mouse xenografted with human HGC-27 cells assessed as increase in connective tissue proliferation of kidney at 40 mg/kg,ip administrated every other day for 17 days by hematoxylin and eosin staining method; type: organism-based; conditions: in vivo, 408 h, time 17 day
[7] = Acute toxicity in BALB/c mouse xenografted with human HGC-27 cells assessed as venous congestion in liver at 40 mg/kg,ip administrated every other day for 17 days by hematoxylin and eosin staining method; type: organism-based; conditions: in vivo, 408 h, time 17 day
HGC-27 [8] = experiment: Induction of apoptosis in human HGC-27 cells at 1.25 uM incubated for 24 hrs by annexin V-FITC/PI satining based flow cytometry relative to control; type: functional
HGC-27 [9] = experiment: Induction of apoptosis in human HGC-27 cells assessed as late apoptotic cells at 5 uM incubated for 24 hrs by annexin V-FITC/PI satining based flow cytometry (reference value: 0.32 %); type: functional
HGC-27 [10] = experiment: Induction of apoptosis in human HGC-27 cells assessed as downregulation of Bcl-2 expression incubated for 48 hrs by Western blotting analysis; type: functional, cell-based
[11] = molecular target: Poly [ADP-ribose] polymerase 1 (Homo sapiens, UniProt P09874); experiment: Inhibition of PARP-1 (unknown origin) incubated for 70 mins by HT universal chemiluminescent assay
Chain of Poly [ADP-ribose] polymerase 1 (P09874 whole entry): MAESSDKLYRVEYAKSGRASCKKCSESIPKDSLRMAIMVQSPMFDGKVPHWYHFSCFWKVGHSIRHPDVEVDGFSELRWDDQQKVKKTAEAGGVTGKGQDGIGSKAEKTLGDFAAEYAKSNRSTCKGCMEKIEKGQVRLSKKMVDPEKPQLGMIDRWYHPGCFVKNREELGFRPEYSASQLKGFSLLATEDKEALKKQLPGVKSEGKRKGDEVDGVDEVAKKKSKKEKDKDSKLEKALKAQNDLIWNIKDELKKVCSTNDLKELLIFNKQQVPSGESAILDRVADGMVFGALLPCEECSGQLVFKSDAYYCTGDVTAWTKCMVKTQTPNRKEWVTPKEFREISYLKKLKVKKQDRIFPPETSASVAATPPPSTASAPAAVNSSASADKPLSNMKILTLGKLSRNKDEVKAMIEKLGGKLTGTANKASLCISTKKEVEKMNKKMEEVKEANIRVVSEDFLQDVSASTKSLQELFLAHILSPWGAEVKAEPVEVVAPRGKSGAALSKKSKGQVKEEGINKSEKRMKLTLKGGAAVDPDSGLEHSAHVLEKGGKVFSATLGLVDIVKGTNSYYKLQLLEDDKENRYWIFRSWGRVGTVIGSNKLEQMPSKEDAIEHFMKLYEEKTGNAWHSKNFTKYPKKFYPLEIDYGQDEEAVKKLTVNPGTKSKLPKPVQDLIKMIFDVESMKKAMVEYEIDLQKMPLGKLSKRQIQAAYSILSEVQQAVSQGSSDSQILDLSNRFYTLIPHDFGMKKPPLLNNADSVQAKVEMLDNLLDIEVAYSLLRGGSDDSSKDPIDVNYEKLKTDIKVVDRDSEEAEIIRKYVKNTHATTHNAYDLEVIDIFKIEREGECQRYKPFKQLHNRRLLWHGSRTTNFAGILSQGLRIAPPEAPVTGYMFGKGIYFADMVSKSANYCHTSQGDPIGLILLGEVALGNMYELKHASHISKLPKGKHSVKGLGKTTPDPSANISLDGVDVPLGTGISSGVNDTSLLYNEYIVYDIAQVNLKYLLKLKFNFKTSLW

HGC-27 [12] = experiment: Induction of apoptosis in human HGC-27 cells assessed as viable cells at 5 uM incubated for 24 hrs by annexin V-FITC/PI satining based flow cytometry (reference value: 95.3 %); type: functional; conditions: read-out: Activity
HGC-27 [13] = experiment: Induction of apoptosis in human HGC-27 cells assessed as viable cells at 2.5 uM incubated for 24 hrs by annexin V-FITC/PI satining based flow cytometry (reference value: 95.3 %); type: functional; conditions: read-out: Activity
HGC-27 [14] = experiment: Induction of apoptosis in human HGC-27 cells assessed as late apoptotic cells at 2.5 uM incubated for 24 hrs by annexin V-FITC/PI satining based flow cytometry (reference value: 0.32 %); type: functional
HGC-27 [15] = experiment: Induction of apoptosis in human HGC-27 cells assessed as upregulation of caspase-3 expression incubated for 48 hrs by Western blotting analysis; type: functional, cell-based
HGC-27 [16] = experiment: Induction of apoptosis in human HGC-27 cells assessed as necrotic cells at 1.25 uM incubated for 24 hrs by annexin V-FITC/PI satining based flow cytometry (reference value: 0.13 %); type: functional
HGC-27 [17] = experiment: Induction of cell cycle arrest in human HGC-27 cells assessed as accumulation of cells at G0/G1 phase at 2.5 uM incubated for 48 hrs by flow cytometry relative to control; type: functional
L02 = experiment: Antiproliferative activity against human L02 cells assessed as inhibition of cell growth incubated for 48 hrs by MTT assay; type: functional, cell-based; conditions: L02, 48 h
HGC-27 [18] = experiment: Induction of apoptosis in human HGC-27 cells assessed as early apoptotic cells at 1.25 uM incubated for 24 hrs by annexin V-FITC/PI satining based flow cytometry (reference value: 4.2 %); type: functional
HGC-27 [19] = experiment: Induction of apoptosis in human HGC-27 cells assessed as upregulation of Bax expression incubated for 48 hrs by Western blotting analysis; type: functional, cell-based
HGC-27 [20] = experiment: Induction of cell cycle arrest in human HGC-27 cells assessed as accumulation of cells at G0/G1 phase at 1.25 uM incubated for 48 hrs by flow cytometry relative to control; type: functional
HGC-27 [21] = experiment: Induction of DNA damage in human HGC-27 cells assessed as upregulation of p53 expression incubated for 48 hrs by Western blotting analysis; type: functional, cell-based
HGC-27 [22] = experiment: Induction of apoptosis in human HGC-27 cells assessed as early apoptotic cells at 2.5 uM incubated for 24 hrs by annexin V-FITC/PI satining based flow cytometry (reference value: 4.2 %); type: functional
HGC-27 [23] = experiment: Induction of apoptosis in human HGC-27 cells assessed as downregulation of PARP expression incubated for 48 hrs by Western blotting analysis; type: functional, cell-based
HGC-27 [24] = experiment: Inhibition of colony formation in human HGC-27 cells incubated for 48 hrs by crystal violet staining based microscopic analysis; type: functional, cell-based
HGC-27 [25] = experiment: Induction of apoptosis in human HGC-27 cells assessed as early apoptotic cells at 5 uM incubated for 24 hrs by annexin V-FITC/PI satining based flow cytometry (reference value: 4.2 %); type: functional
HGC-27 [26] = experiment: Induction of apoptosis in human HGC-27 cells assessed as late apoptotic cells at 1.25 uM incubated for 24 hrs by annexin V-FITC/PI satining based flow cytometry (reference value: 0.32 %); type: functional
HGC-27 [27] = experiment: Induction of apoptosis in human HGC-27 cells assessed as upregulation of cleaved PARP expression incubated for 48 hrs by Western blotting analysis; type: functional, cell-based
HGC-27 [28] = experiment: Induction of apoptosis in human HGC-27 cells assessed as viable cells at 1.25 uM incubated for 24 hrs by annexin V-FITC/PI satining based flow cytometry (reference value: 95.3 %); type: functional; conditions: read-out: Activity
HGC-27 [29] = experiment: Induction of apoptosis in human HGC-27 cells at 2.5 uM incubated for 24 hrs by annexin V-FITC/PI satining based flow cytometry relative to control; type: functional
HGC-27 [30] = experiment: Induction of apoptosis in human HGC-27 cells assessed as necrotic cells at 2.5 uM incubated for 24 hrs by annexin V-FITC/PI satining based flow cytometry (reference value: 0.13 %); type: functional
HGC-27 [31] = experiment: Induction of DNA damage in human HGC-27 cells assessed as upregulation of gamma-H2AX expression incubated for 48 hrs by Western blotting analysis; type: functional, cell-based
HGC-27 [32] = experiment: Induction of apoptosis in human HGC-27 cells assessed as upregulation of cleaved caspase-3 expression incubated for 48 hrs by Western blotting analysis; type: functional, cell-based
HGC-27 [33] = experiment: Inhibition of cell migration in human HGC-27 cells incubated upto 72 hrs by scratch wound healing based microscopic analysis; type: functional
HGC-27 [34] = experiment: Induction of apoptosis in human HGC-27 cells at 5 uM incubated for 24 hrs by annexin V-FITC/PI satining based flow cytometry relative to control; type: functional
HGC-27 [35] = experiment: Induction of apoptosis in human HGC-27 cells assessed as necrotic cells at 5 uM incubated for 24 hrs by annexin V-FITC/PI satining based flow cytometry (reference value: 0.13 %); type: functional
HGC-27 [36] = experiment: Induction of cell cycle arrest in human HGC-27 cells assessed as accumulation of cells at G0/G1 phase at 5 uM incubated for 48 hrs by flow cytometry relative to control; type: functional
HGC-27 [37] = experiment: Induction of DNA damage in human HGC-27 cells assessed as upregulation of p53 phoshorylation incubated for 48 hrs by Western blotting analysis; type: functional, cell-based
[38] = molecular target: T1, DNA topoisomerase 1 (Homo sapiens) (UniProt P11387); experiment: Inhibition of human topoisomerase 1 assessed as relaxation of supercoiled pBR322 plasmid DNA incubated for 10 to 15 mins by EtBr staining based agarose gel electrophoresis method; conditions: time 10-15 min
T1 sequence (whole entry): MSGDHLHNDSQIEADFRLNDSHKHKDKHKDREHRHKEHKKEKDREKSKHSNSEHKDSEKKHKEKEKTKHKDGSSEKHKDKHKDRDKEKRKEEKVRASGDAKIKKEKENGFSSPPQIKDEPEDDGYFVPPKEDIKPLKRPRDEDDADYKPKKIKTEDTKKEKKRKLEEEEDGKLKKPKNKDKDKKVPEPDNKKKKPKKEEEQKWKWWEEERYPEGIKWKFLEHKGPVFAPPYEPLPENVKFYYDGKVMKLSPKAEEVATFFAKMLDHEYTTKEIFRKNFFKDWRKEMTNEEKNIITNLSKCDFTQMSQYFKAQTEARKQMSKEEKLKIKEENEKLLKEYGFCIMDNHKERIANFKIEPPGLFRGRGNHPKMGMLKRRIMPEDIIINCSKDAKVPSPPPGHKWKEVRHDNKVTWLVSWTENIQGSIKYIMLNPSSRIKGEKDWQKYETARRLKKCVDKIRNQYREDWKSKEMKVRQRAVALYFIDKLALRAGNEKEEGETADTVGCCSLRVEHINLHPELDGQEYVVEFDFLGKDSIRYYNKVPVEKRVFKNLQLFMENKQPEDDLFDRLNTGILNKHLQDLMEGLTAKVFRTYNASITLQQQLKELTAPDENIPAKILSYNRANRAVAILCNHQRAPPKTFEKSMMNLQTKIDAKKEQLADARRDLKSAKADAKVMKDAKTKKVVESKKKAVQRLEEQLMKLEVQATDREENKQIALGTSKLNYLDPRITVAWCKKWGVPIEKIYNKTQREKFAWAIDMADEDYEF

SMILES: CCc1c2c(nc3ccc(OC(=O)N4CCC(N5CCCCC5)CC4)cc13)-c1cc3c(c(=O)n1C2)COC(=O)[C@]3(O)CC [IRINOTECAN]
- IC50 (HepG2): 10.8 µM
- IC50 (HeLa): 13.2 µM
- IC50 (HGC-27 [1]): 7.01 µM
- Activity [2]: Toxic
- Activity [3]: Toxic
- IC50 (A549): 6.13 µM
- Activity [4]: Toxic
- inhibition in vivo at 40 mg/kg (HGC-27 [5]): 87%
- Activity [6]: Toxic

SMILES: O=C1CCC[C@@H]2[C@H]3CCCN4CCC[C@@H](CN12)[C@@H]34 [MATRINE]
- IC50 (HepG2): 4360 µM
- IC50 (HeLa): 6750 µM
- IC50 (HGC-27 [1]; read-out: IC50): 4180 µM
- Activity [2]: Toxic
- Activity [3]: Toxic
- IC50 (A549): 5880 µM
- inhibition in vivo at 40 mg/kg (HGC-27 [5]): 9.7%
- Activity [7]: Toxic

SMILES: O=C(OCC1c2ccccc2-c2ccccc21)N1C[C@@H]2CCCN3CCC[C@@H]([C@H]23)[C@H]1CCCc1nc2cc(Br)c(Br)cc2[nH]1
- Activity (HGC-27 [8]): 15.5%
- Activity (HGC-27 [9]): 8.01%
- IC50 (HepG2): 3.8 µM
- IC50 (HeLa): 7.21 µM
- Activity (HGC-27 [10]): Dose-Dependent Effect
- IC50 (HGC-27 [1]; read-out: IC50): 2.49 µM
- IC50 [11]: 0.09 µM
- viability at 5 µM (HGC-27 [12]): 18.1%
- viability at 2.5 µM (HGC-27 [13]): 51.7%
- Activity (HGC-27 [14]): 7%
- Activity (HGC-27 [15]): Dose-Dependent Effect
- Activity (HGC-27 [16]): 0.37%
- Activity [3]: Toxic
- Activity (HGC-27 [17]): 70%
- IC50 (L02): > 64 µM
- IC50 (A549): 9.48 µM
- Activity (HGC-27 [18]): 17.2%
- Activity (HGC-27 [19]): Dose-Dependent Effect
- Activity (HGC-27 [20]): 66%
- Activity (HGC-27 [21]): Dose-Dependent Effect
- Activity (HGC-27 [22]): 40.6%
- Activity (HGC-27 [23]): Dose-Dependent Effect
- inhibition (HGC-27 [24]): Dose-Dependent Effect
- Activity (HGC-27 [25]): 72.5%
- Activity (HGC-27 [26]): 1.79%
- Activity (HGC-27 [27]): Dose-Dependent Effect
- viability at 1.25 µM (HGC-27 [28]): 80.7%
- Activity (HGC-27 [29]): 43.1%
- Activity (HGC-27 [30]): 0.6%
- Activity (HGC-27 [31]): Dose-Dependent Effect
- inhibition in vivo at 40 mg/kg (HGC-27 [5]): 75.4%
- Activity (HGC-27 [32]): Dose-Dependent Effect
- inhibition (HGC-27 [33]): Dose-Dependent Effect
- Activity (HGC-27 [34]): 76%
- Activity (HGC-27 [35]): 1.42%
- Activity (HGC-27 [36]): 74%
- Activity (HGC-27 [37]): Dose-Dependent Effect
- inhibition [38]: Dose-Dependent Effect
